The target in experiment [1] is α1-adrenoceptor. Conditions: rat cerebral cortex, [3H]-prazosin; ref Pytka et al. (2015); read-out: Adrenergic receptors Ki α1; cited from earlier work.
Experiment [2] relates to blood pressure in normotensive rats. In words: Influence on blood pressure in normotensive rats. It is filed as in vivo, rat. On the set-up: Systolic pressure / Diastolic pressure: unit not given beside the values. The note with it: for Diastolic pressure / Systolic pressure: anesthetized normotensive rats; for Diastolic pressure / Systolic pressure / reduction of diastolic blood pressure / reduction of systolic blood pressure: lowest hypotensive dose i.p.; for lowest hypotensive dose / reduction of diastolic blood pressure / reduction of systolic blood pressure: normotensive rats; for lowest hypotensive dose: lowest dose significantly lowering systolic and diastolic blood pressure; for reduction of diastolic blood pressure / reduction of systolic blood pressure: period of significant effect. As to the method:
The tested compounds were administered i.p. after 15 min of stabilization period. The compounds were administered at the dose 10 mg/kg.

For experiment [3], the system named is α1-adrenergic receptor subtypes. In words: Comparison of functional affinities across α1-adrenoceptor subtypes (rat tail artery, mouse spleen, rat aorta). Type of experiment: biochemical. The note with it: from difference in pA2 values. The procedure:
The isolated artery, cut into ~4 mm long rings, was then horizontally put up between two stainless steel hooks (diameter 0.15 mm). One hook was fastened to the bottom of the chamber and the other to an isometric FDT10-A force displacement transducer (DMT Model 750TOBS, Denmark), linked with Powerlab 4/26 analyzer (ADInstruments), and processed by LabChart 7 software. […] The initial optimal tissues tension was set at 0.75 g. Chloroethylclonidine (3 μM) as the preferential α1B-adrenoreceptor alkylating agent was used during incubation and after 30 min it was completely washed off. Through 100 min of equilibration tissues were stimulated with noradrenaline (1 μM) four times with washing out until the contractile response become constant. Two cumulative concentration-response curves to noradrenaline, at an interval of 60 min, were established on each arterial ring both in the presence and absence of antagonist. The incubation with antagonists went on for 30 min. The experiments were carried out in the constant presence of yohimbine (0.1 μM) and propranolol (1 μM) to block α2- and β-adrenoceptors, respectively in order to minimize the involvement of these adrenoceptors in the response to noradrenaline.
The influence on α1B-adrenoceptors was evaluated using the isolated mouse spleen. The spleen was removed from male mice right after killing the anesthetized animal by cervical dislocation. […]

Where [4] appears, read: Control (before administration).

Structures can show the parent of a compound that is named as a salt. Marks after values point to notes of the source that are not given here.

Take `COc1ccccc1N1CCN(CCOCCOc2c(C)cccc2C)CC1.Cl` [HBK-14, 1-[(2,6-dimethylphenoxy)ethoxyethyl]-4-(2-methoxyphenyl)piperazine hydrochloride]: the Ki (in general, a measure of affinity in units of concentration, obtained from inhibition or displacement) in experiment [1] is 0.0228 µM. In addition, the Diastolic pressure in experiment [2] (5 min) is 105.2 ± 6.1; in experiment [2] (10 min), 103.0 ± 5.8; in experiment [2] (20 min), 97.3 ± 6.0^c; in experiment [2] (30 min), 95.2 ± 6.1^c; in experiment [2] (40 min), 92.3 ± 6.2^c; in experiment [2] (50 min), 94.0 ± 5.8^c. The results for the Diastolic pressure in experiment [2] (60 min) and in experiment [2] (setting [4]) were 98.0 ± 5.1^c and 106.7 ± 4.3, respectively. Besides, the Systolic pressure is 135.2 ± 7.3 in experiment [2] (5 min); 131.2 ± 6.8^c in experiment [2] (10 min); 127.3 ± 6.6^c in experiment [2] (20 min); 125.3 ± 7.0^c in experiment [2] (30 min); 124.2 ± 7.0^c in experiment [2] (40 min); 127.3 ± 6.3^c in experiment [2] (50 min). Also, the Systolic pressure in experiment [2] (60 min) is given as 128.2 ± 5.4^c; in experiment [2] (setting [4]), 138.3 ± 6.8. Further, the lowest hypotensive dose in experiment [2] was 0.625 mg/kg. Also, the “reduction of diastolic blood pressure” value in experiment [2] is given as 9−14%. Also, the “reduction of systolic blood pressure” value in experiment [2] is given as 5−10%.

On to `COc1ccccc1N1CCN(CCOCCOc2c(C)cccc2Cl)CC1.Cl` [HBK-15, 1-[(2-chloro-6-methylphenoxy)ethoxyethyl]-4-(2-methoxyphenyl)piperazine hydrochloride], for which the Ki in experiment [1] was 0.0131 µM. Further, the Diastolic pressure is reported as 96.3 ± 3.7^c in experiment [2] (5 min); 92.0 ± 4.3^c in experiment [2] (10 min); 88.5 ± 3.5^c in experiment [2] (20 min); 88.3 ± 2.9^c in experiment [2] (30 min); 91.0 ± 3.2^c in experiment [2] (40 min); 90.2 ± 2.7^c in experiment [2] (50 min). Moreover, the Diastolic pressure is 93.0 ± 1.2^c in experiment [2] (60 min) and 110.3 ± 2.2 in experiment [2] (setting [4]). Also, the Systolic pressure was 121.2 ± 4.8^c in experiment [2] (5 min); 116.3 ± 6.0^c in experiment [2] (10 min); 112.0 ± 5.5^c in experiment [2] (20 min); 112.2 ± 4.2^c in experiment [2] (30 min); 112.5 ± 4.4^c in experiment [2] (40 min); 113.2 ± 3.7^c in experiment [2] (50 min). Besides, the Systolic pressure in experiment [2] (60 min) is recorded as 117.3 ± 3.0^c; in experiment [2] (setting [4]), 139.0 ± 2.7. This compound displayed a lowest hypotensive dose in experiment [2] of 5.0 mg/kg. In experiment [2], the “reduction of diastolic blood pressure” value is 13−20%. For the same compound, the “reduction of systolic blood pressure” value in experiment [2] was 13−19%.

As to `COc1ccccc1N1CCN(CCCOc2cc(C)ccc2Cl)CC1` [HBK-16, 1N-[3-(2-chloro-5-methylphenoxy)propyl]-4N-(2-methoxyphenyl)piperazine hydrochloride], the Diastolic pressure is reported as 95.0 ± 5.1 in experiment [2] (5 min); 93.7 ± 5.1 in experiment [2] (10 min); 91.3 ± 5.0^b in experiment [2] (20 min); 89.8 ± 5.2^a in experiment [2] (30 min); 87.7 ± 4.7^b in experiment [2] (40 min); 88.0 ± 4.3^c in experiment [2] (50 min). The Diastolic pressure was 87.7 ± 4.6^b in experiment [2] (60 min) and 97.0 ± 4.3 in experiment [2] (setting [4]). Also, the Systolic pressure in experiment [2] (5 min) is on record as 123.2 ± 3.3; in experiment [2] (10 min), 121.2 ± 3.2; in experiment [2] (20 min) it was 114.8 ± 2.0^b; in experiment [2] (30 min) it was 113.0 ± 2.4^c; in experiment [2] (40 min), 110.3 ± 2.1^c; in experiment [2] (50 min) it was 110.8 ± 2.0^b. The Systolic pressure in experiment [2] (60 min) is 110.7 ± 1.9^c; in experiment [2] (setting [4]) it was 124.7 ± 3.1. This compound also displayed a lowest hypotensive dose in experiment [2] of 0.1 mg/kg. In experiment [2], the “reduction of diastolic blood pressure” value was 6−10%. Further, the “reduction of systolic blood pressure” value in experiment [2] is 8−11%.

For `COc1ccccc1N1CCN(CCCOc2c(C)cc(C)cc2C)CC1` [HBK-18, 1N-[3-(2,4,6-trimethylphenoxy)propyl]-4N-(2-methoxyphenyl)piperazine hydrochloride], the Diastolic pressure is reported as 90.7 ± 7.1 in experiment [2] (5 min); 85.5 ± 7.5 in experiment [2] (10 min); 79.5 ± 7.8^a in experiment [2] (20 min); 78.3 ± 7.2^a in experiment [2] (30 min); 78.8 ± 7.0^b in experiment [2] (40 min); 78.7 ± 5.6^c in experiment [2] (50 min). Further, the Diastolic pressure in experiment [2] (60 min) is reported as 77.5 ± 6.0^b; in experiment [2] (setting [4]) it was 94.3 ± 6.4. Also, the Systolic pressure in experiment [2] (5 min) was 117.7 ± 9.1; in experiment [2] (10 min), 112.7 ± 7.7; in experiment [2] (20 min), 96.5 ± 8.9^b; in experiment [2] (30 min), 93.8 ± 8.7^c; in experiment [2] (40 min), 91.8 ± 10.0^b; in experiment [2] (50 min), 90.7 ± 8.6^b. Further, the Systolic pressure in experiment [2] (60 min) is 90.2 ± 9.2^a; in experiment [2] (setting [4]) it was 125.7 ± 8.2. Also, the lowest hypotensive dose in experiment [2] was found to be 0.01 mg/kg. Further, the “reduction of diastolic blood pressure” value in experiment [2] was 16−18%. Besides, the “reduction of systolic blood pressure” value in experiment [2] is 23−28%.

In the case of `COc1ccccc1N1CCN(CCCOc2cc(C)cc(C)c2C)CC1` [HBK-19, 1N-[3-(2,3,5-trimethylphenoxy)propyl]-4N-(2-methoxyphenyl)piperazine hydrochloride], the “α1A-adrenoceptor blockade relative to α1B subtype (fold stronger)” value in experiment [3] is recorded as “around seven-fold”. The Diastolic pressure in experiment [2] (5 min) is 94.5 ± 2.6; in experiment [2] (10 min), 87.5 ± 0.4^c; in experiment [2] (20 min), 89.0 ± 2.3^b; in experiment [2] (30 min), 87.0 ± 2.9^c; in experiment [2] (40 min) it was 84.5 ± 1.4^c; in experiment [2] (50 min) it was 83.5 ± 1.4^c. Besides, the values for the Diastolic pressure in experiment [2] (60 min) and in experiment [2] (setting [4]) were 84.0 ± 0.6^c and 98.0 ± 4.6, respectively. The Systolic pressure is 121.0 ± 4.0^b in experiment [2] (5 min); 116.0 ± 3.5^c in experiment [2] (10 min); 111.5 ± 3.2^c in experiment [2] (20 min); 110.0 ± 2.3^c in experiment [2] (30 min); 107.5 ± 3.2^c in experiment [2] (40 min); 106.0 ± 3.5^c in experiment [2] (50 min). Also, the Systolic pressure in experiment [2] (60 min) is listed as 106.0 ± 4.0^c; in experiment [2] (setting [4]), 127.0 ± 4.0. The same compound displayed a lowest hypotensive dose in experiment [2] of 0.625 mg/kg. Besides, the “reduction of diastolic blood pressure” value in experiment [2] is recorded as 9−15%. Besides, the “reduction of systolic blood pressure” value in experiment [2] is 5−17%.

Values taken from paper PMC4971072, “Chemically Homogenous Compounds with Antagonistic Properties at All α1-Adrenoceptor Subtypes but not β1-Adrenoceptor Attenuate Adrenaline-Induced Arrhythmia in Rats” (Frontiers in Pharmacology, 2016).
